Consider two compounds from US20200352907A1, “Use Of Carbamate Compound For Preventing, Alleviating Or Treating Absence Seizure Or Epilepsy Showing Absence Seizure” (SK BIOPHARMACEUTICALS CO., LTD., priority 2017, published 2020).

SMILES strings stand for the structures.

One assay has as its system GAERS model rats. As to conditions: known from literature; cited from earlier work.
The test system of assay [1] is GAERS (Genetic Absence Epilepsy Rat from Strasbourg) model. Kind of assay: Efficacy test in GAERS model rats: EEG analysis of spike-and-wave discharges (SWD). Format: in vivo. As to conditions: for cumulated duration of SWD / number of occurrences of SWD: 20-minute intervals 10-90 min after administration, 2-way ANOVA vs vehicle; for cumulated duration of SWD, total effect for 1 hour after administration / number of occurrences of SWD, total effect for 1 hour after administration: 1-way ANOVA vs vehicle, effect similar to valproate 150 and 200 mg/kg. How it is done: Twelve 5-week-old GAERS model rats were purchased from the Grenoble Institute of Neurosciences, France. After purchase, the rats were bred at a temperature of 21±2° C. under conditions of free access to food and water, and controlled light (illuminated from 8 am to 8 pm), and the condition was maintained for 2 months prior to surgery.
EEG electrodes were implanted into twelve 3-month-old GAERS rats. Stereotaxic implantation was performed under anesthesia with isoflurane (2% concentration in oxygen). The rats were fixed to the stereotaxic frame and surgery was performed while observing body temperature. An ophthalmic gel was used to prevent drying of the cornea. After cutting the hair of the incision site, it was disinfected with povidone, and after incision, four holes were drilled using a drill at the frontal cortical and parietal cortical positions of both hemispheres of the open skull. Monopolar electrodes were placed in these holes and then connected to a female connector fixed to the skull for EEG recording. The incision site was then sutured. After surgery, buprenorphine was injected subcutaneously at a dose of 0.1 mg/kg, and the anesthetic was removed and observed until recovery of consciousness. After that, the rats were kept in a cage for recovery for a week.
One week after the electrode implantation, preliminary EEG measurements of 1 hour were performed on all 12 animals, and 10 animals showing enough signal-to-noise suitable for detecting generation of SWD were selected.
Test compound and positive control drug were prepared immediately before administration. Carbamic acid (R)-1-(2-chlorophenyl)-2-tetrazol-2-yl-ethyl ester prepared in the above preparation example was used as the test compound which was dissolved in 30% (volume/volume) PEG300 (81164-14, Sigma-Aldrich), and the positive control valproate (P4543, Sigma-Aldrich) was dissolved in 0.9% sterile saline (Cooper, France). Both drugs were administered intraperitoneally at a dose of 5 ml/kg. 30% PEG300 was used for vehicle administration as the negative control.
The test was done in a cross-over method, with a minimum interval of 71 hours between each administration for wash-out of the drug. In the first stage test, the following conditions were administered. • Vehicle (30% PEG300) • Valproate 200 mg/kg • Test compound 5 mg/kg • Test compound 10 mg/kg • Test compound 20 mg/kg
In the second stage test, the following conditions were administered. • Valproate 150 mg/kg • Test compound 30 mg/kg
For EEG recording, 10 GAERS rats were placed in a recording chamber and then connected to a wire for EEG recording. After an hour of habituation process, EEG recordings of free-moving animals were performed. As a baseline phase, 20 minutes of recording were performed before drug administration, and 90 minutes of recording were performed after drug administration, using SystemPlus Evolution (Micromed). During the recording, the animals were kept in a quiet wakefulness state.
The generated SWD was analyzed using the recorded EEG data, and all data analysis was performed by blind method. SWD was analyzed for the 20-minute baseline phase and for a total of 80 minutes period from 10 to 90 minutes after drug administration. The 80 minutes were analyzed by dividing them into 20-minute intervals, and the number of occurrences of SWD and the cumulated SWD duration (the cumulated duration of SWD) were analyzed.
Results were expressed as mean value ±standard error, and prism (graphpad) was used for statistical analysis. 2-way ANOVA was used for the number of occurrences of SWD and the cumulated duration of SWD over time. Bonferroni's paired comparison method was used for comparison with the baseline period, comparison with the vehicle-administered negative control and comparison with the valproate-administered positive control. […]

Where [2] appears, read: compared with valproate positive control.

For `CCC1(C)CC(=O)NC1=O` (stereo not shown) [ethosuximide], the “SWD in the GAERS model rats” value in the assay on GAERS model rats is given as “inhibited”.
`NC(=O)O[C@@H](Cn1ncnn1)c1ccccc1Cl` [test compound, Carbamic acid (R)-1-(2-chlorophenyl)-2-tetrazol-2-yl-ethyl ester]: in assay [1] (setting [2]), the “effect duration (cumulated duration of SWD)” value was “longer duration than valproate” and the “effect duration (number of occurrences of SWD)” value is “longer duration than valproate”. Further, in assay [1] (test compound 10 mg/kg i.p.), the “cumulated duration of SWD” value was “significant reduction effect in the 30-50 min and 50-70 min intervals after administration”; the “number of occurrences of SWD” value is “significance in the 30 to 50 min interval after administration”. For the same compound, in assay [1] (test compound 20 mg/kg i.p.), the “cumulated duration of SWD, total effect for 1 hour after administration” value is “significantly reduced the cumulated duration of SWD compared to the vehicle administration group”; the “number of occurrences of SWD, total effect for 1 hour after administration” value was “significantly reduced the number of occurrences of SWD compared to the vehicle administration group”; the “cumulated duration of SWD” value is “significant reduction effect in the 30-90 min interval after administration”; the “number of occurrences of SWD” value is “significance in the 30 to 90 min interval after administration”. Moreover, in assay [1] (test compound 30 mg/kg i.p.), the “cumulated duration of SWD, total effect for 1 hour after administration” value is on record as “significantly reduced the cumulated duration of SWD compared to the vehicle administration group”; the “number of occurrences of SWD, total effect for 1 hour after administration” value is listed as “significantly reduced the number of occurrences of SWD compared to the vehicle administration group”; the “cumulated duration of SWD” value is listed as “significant reduction effect in the entire period after administration”; the “number of occurrences of SWD” value is on record as “significance in the entire period after administration”.
